Data set [1] has as its system rats with stroke. Nature of the data set: Successive treatments starting 4 h after the onset of stroke (Zealonga scores). The data set is classed as in vivo, SD rats. The conditions noted are these: for number of rats scored Score 0 / number of rats scored Score 1 / number of rats scored Score 2: urokinase 20000 IU/kg once per day from 4 h after stroke onset, n=6. Here is the method: The efficacy was represented by neural function scores, and a lower score indicates higher efficacy. A 10% chloral hydrate solution was injected intraperitoneally into male SD rats at a dosage of 400 mg/kg body weight for anesthesia. A longitudinal incision was made at the center of the neck, and the right carotid common artery trunk was dissected (about 3 cm in length). Carotid external artery branches were each dissected and ligated at the hyoid level, and the carotid internal artery was dissected at the swollen part of the neck. The open incision in the carotid internal artery and the proximal end of the common carotid artery were occluded respectively with noninvasive arterial clips, and the distal end of the carotid external artery was ligated. A catheter containing 0.5 mL thrombus suspension in normal saline was inserted in the carotid external artery trunk. At the same time when the clip on the carotid internal artery was released, the 0.5 mL thrombus suspension in normal saline in the catheter slowly flew from the carotid external artery to its proximal end, and then was injected into the arteries in brain through the carotid internal artery. Subsequently, the proximal end of the carotid artery was ligated, the arterial clips on the carotid internal artery and the common carotid artery were released, and blood flow was restored. After the wound was stitched up, 20,000 IU penicillin was intramuscularly injected for prevention from infection. After 4 h, compound Ie in normal saline (at a dosage of 1 μmol/kg, n=1), urokinase in normal saline (at a dosage of 20000 IU/kg, n=6) or tPA in normal saline (at a dosage of 3 mg/kg, n=6) was infused through the tail vein. Infusion of compound Ie in normal saline through rat tail vein was carried out once per day for 6 consecutive days, observed for 7 days. The rats were compared to themselves each day, and evaluated for degree of damage in neural function by the Zealonga method. Alternatively, infusion of urokinase in normal saline through rat tail vein was carried out once per day for two consecutive days, the rats were compared to themselves each day, and evaluated for the degree of damage in neural function by the Zealonga method. Alternatively, infusion of tPA in normal saline through rat tail vein was carried out once per day for two consecutive days, the rats were compared to themselves each day, and evaluated for the degree of damage in neural function by the Zealonga method. A score of 0 indicated no sign of loss in neural function, 1 indicated the front limbs on the undamaged side could not stretch out, 2 indicated walking toward the undamaged side, 3 indicated tail-chasing walking in circles toward the undamaged side, 4 indicated involuntary walking with disturbance of consciousness, and 5 indicated death.

Data set [2] has as its system rats with stroke. The experiment in a line: Immediate treatment after stroke onset with different dosages of Ie (Zealonga scores). The data set is classed as in vivo, SD rats. Here is the method:
A 10% chloral hydrate solution (400 mg/kg) was injected intraperitoneally into male SD rats (250 to 300 g) for anesthesia. An incision of about 2 cm in length was longitudinally made slightly on the right to the center of the neck, and the right carotid common artery, carotid external artery and carotid internal artery were dissected along the margin of the inner side of sternocleidomastoid muscles. The open incision in the carotid internal artery and the proximal end of the common carotid artery were occluded respectively with noninvasive arterial clips. A small incision was made on the carotid external artery, and the distal end of the carotid external artery was ligated. The arterial clip at the proximal end of the carotid external artery was released, and 10 μl blood was drawn before the proximal end of the common carotid artery was again occluded with a noninvasive arterial clip. The 10 μl blood drawn was placed in a 1 mL EP vial and kept at RT for 30 min until coagulation of blood, and then transferred into a −20° C. refrigerator for 1 h to allow solid coagulation. After 1 h, the blood clots were taken out, added into 1 mL saline, and then broken into relatively uniform microthrombus by using a steel spatula. The microthrombus suspension was then transferred into a 1 mL injector until use. At the same time when the clip on the carotid internal artery of the rat was released, the 1 mL thrombus suspension in the injector was slowly injected from the carotid external artery of the rat to its proximal end, and then was injected into the brain of the rat through the carotid internal artery. Subsequently, the proximal end of the carotid external artery was ligated, the arterial clips on the carotid internal artery and the carotid common artery were released, and blood flow was restored. Injection of urokinase in normal saline (positive control group, at a dosage of 20000 IU/kg), tPA in normal saline (positive control group, at a dosage of 3 mg/kg), normal saline (blank control group, at a dosage of 3 mL/kg), or compound Ie in normal saline (at a dosage of 1 μmol/kg, 0.1 μmol/kg or 0.01 μmol/kg) was carried out. 24 h after the rats were awake, the degree of damage in neural function was evaluated by the Zealonga method. A score of 0 indicated no sign of loss in neural function, 1 indicated the front limbs on the undamaged side could not stretch out, 2 indicated walking toward the undamaged side, 3 indicated tail-chasing walking in circles toward the undamaged side, 4 indicated involuntary walking with disturbance of consciousness, and 5 indicated death. As shown in the results, in rats receiving immediate treatment after the onset of stroke with […] compound Ie, the percentage of rats with a neural function score of 0 was 60%, 30%, and 0%, respectively; and the percentage of rats with a neural function score of 1 was 20%, 30%, and 10%, respectively.

The record followed here is patent US10806798B2, “Compound with effects of thrombolysis, free radical scavenging and thrombus-targeting” (Shanghai Lumosa Therapeutics Co., Ltd., priority 2012, dated 2020).

As for urokinase, in data set [1] (Day 1), the “number of rats scored Score 0” value is 2 rats, the “number of rats scored Score 1” value was 3 rats and the “number of rats scored Score 2” value worked out at 1 rat rats. Moreover, in data set [1] (Day 2), the “number of rats scored Score 0” value is recorded as 3 rats, the “number of rats scored Score 1” value is recorded as 1 rat^ rats and the “number of rats scored Score 2” value was 1 rat rats. The same substance yielded a rats died in data set [1] (out of 6 rats, within 48 h, urokinase 20000 IU/kg each day from 4 h after stroke onset) of 2. Also, in data set [1] (urokinase 20000 IU/kg each day from 4 h after stroke onset), the “autopsy on the dead rats” value is recorded as “hemorrhage in internal organs, particularly severe hemorrhage in lungs”. In data set [2] (20000 IU/kg urokinase), the “percentage of rats with a neural function score of 0” value came out at 10% and the “percentage of rats with a neural function score of 1” value amounted to 50%. Further, in data set [2] (urokinase 20000 IU/kg, n = 10), the “number of rats scored Score 0” value is listed as 1, the “number of rats scored Score 1” value is 5, the “number of rats scored Score 2” value was 0 and the “number of rats scored Score 3” value was 3. In data set [2] (urokinase 20000 IU/kg, n = 10), the “number of rats scored Score 4” value is listed as 1 and the “number of rats scored Score 5” value is on record as 0.
